This passage reports EC50 and inhibition results from patent US10188634B2, “3-(3H-imidazo[4,5-C]pyridin-2-yl)-1 H-pyrazolo[4,3-B]pyridines and therapeutic uses thereof” (Samumed, LLC, priority 2015, dated 2019).

One may read the EC50 as the concentration that produces a half-maximal response. For orientation: inhibition means the share of the control response that was lost under treatment.

Common to all, as to format: cell-based
One experiment concerns IL-6 in THP-1 cells. In words: Inhibition of IL-6 in LPS-stimulated THP-1 human monocyte cells (HTRF). The conditions noted are these: IL-6 HTRF; for EC50: 500 ng/mL LPS, 22 hours; for inhibition at 10 µM: LPS, read-out: percent inhibition in brackets (given for EC50 >10 μM). Put shortly: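 IL-6 was quantified by HTRF ratio after LPS (500 ng/mL, 22 h) stimulation of THP-1 monocytes pretreated 2 h with compound, 10-point 1:3 dilutions from 10 μM, 0.1% DMSO. Cells were held in 1% FBS for 24 h beforehand. Values normalised to DMSO; four-parameter EC50, or % inhibition at 10 μM above that.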

In experiment [1] the test system is Wnt activity (Sp5-Luc reporter, human Sp5 promoter with eight TCF/LEF binding sites) in SW480 colon carcinoma cells. The experiment can be described thus: Screening assay for Wnt activity: Sp5-Luc reporter gene assay in SW480 cells. The conditions noted are these: for inhibition at 10 µM: read-out: percent inhibition at 10 μM (given for EC50 of >10 μM); for EC50: 10-point dose-response starting from 10 μM, overnight incubation. A digest of the protocol:
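Luminescence (BrightGlo) read after overnight 37 °C exposure of Sp5-Luc SW480 reporter cells, 4,000/well in 1% FBS, to compound dosed 1:3 over 10 points from 10 μM with 0.1% DMSO. Values normalized to DMSO-only cells, fitted with variable-slope four-parameter model; where EC50 exceeds 10 μM, % inhibition at 10 μM reported.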

For the next experiment, the system named is SW480 colon cancer cells. In words: Cell viability assay (CellTiter-Blue) in SW480 colon cancer cells. The conditions noted are these: Homo sapiens, 96 h; for inhibition at 10 µM: four days, CellTiter-Blue, read-out: percent inhibition at 10 μM (given for EC50 of >10 μM); for EC50: four days incubation, CellTiter-Blue cell viability. A digest of the protocol:
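Four-day exposure of SW480 cells (~2×10^3/well) to compound from 10 μM down to 0.004 μM in 1:3 steps, in duplicate. Resorufin fluorescence from CellTiter-Blue after ~3 h served as the viability read-out. EC50 values came from nonlinear curve fits, with % inhibition at 10 μM given where EC50 >10 μM.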
Background: Alamar Blue is a resazurin reagent that responds to reducing activity.

Turning to `CCCCC(=O)Nc1cncc(-c2ccc3[nH]nc(-c4nc5c(-c6ccoc6)cncc5[nH]4)c3n2)c1` [Compound 299, N-(5-(3-(7-(Furan-3-yl)-3H-imidazo[4,5-c]pyridin-2-yl)-1H-pyrazolo[4,3-b]pyridin-5-yl)pyridin-3-yl)pentanamide], the concentration giving a half-maximal response (EC50) (with IL-6 in THP-1 cells; in experiment [1]; in the experiment on SW480 colon cancer cells) was over 10 µM throughout. In addition, the inhibition at 10 µM in the experiment with IL-6 in THP-1 cells was 48.6%; in experiment [1] it was 14.7%; with SW480 colon cancer cells it was 6.7%.
On to `CCCCC(=O)Nc1cncc(-c2ccc3[nH]nc(-c4nc5c(-c6cc(F)cc(NCCN(C)C)c6)cncc5[nH]4)c3n2)c1` [Compound 439, N-(5-(3-(7-(3-((2-(Dimethylamino)ethyl)amino)-5-fluorophenyl)-3H-imidazo[4,5-c]pyridin-2-yl)-1H-pyrazolo[4,3-b]pyridin-5-yl)pyridin-3-yl)pentanamide], for which the EC50 (in the experiment with IL-6 in THP-1 cells; in experiment [1]; in the experiment on SW480 colon cancer cells) was over 10 µM in each case. The values for the inhibition at 10 µM (in the experiment with IL-6 in THP-1 cells; in experiment [1]; in the experiment on SW480 colon cancer cells) were 31.5%, 3.1% and 1.3%, respectively.
For `O=C(Nc1cncc(-c2ccc3[nH]nc(-c4nc5c(-c6ccccc6F)cncc5[nH]4)c3n2)c1)C1CCCC1` [Compound 78, N-(5-(3-(7-(2-Fluorophenyl)-3H-imidazo[4,5-c]pyridin-2-yl)-1H-pyrazolo[4,3-b]pyridin-5-yl)pyridin-3-yl)cyclopentanecarboxamide], the EC50 was over 10 µM in the experiment on IL-6 in THP-1 cells, over 10 µM in experiment [1] and 8.9 µM in the experiment on SW480 colon cancer cells. Also, the results for the inhibition at 10 µM (in the experiment on IL-6 in THP-1 cells; in experiment [1]) were 40.4% and 6.6%, respectively.
As for `CCCCC(=O)Nc1cncc(-c2ccc3[nH]nc(-c4nc5c(-c6ccccn6)cncc5[nH]4)c3n2)c1` [Compound 159, N-(5-(3-(7-(Pyridin-2-yl)-3H-imidazo[4,5-c]pyridin-2-yl)-1H-pyrazolo[4,3-b]pyridin-5-yl)pyridin-3-yl)pentanamide], the EC50 (in the experiment on IL-6 in THP-1 cells; in experiment [1]; in the experiment with SW480 colon cancer cells) was over 10 µM each time. The inhibition at 10 µM in the experiment on IL-6 in THP-1 cells turned out to be 28.2%; in experiment [1], 1%; in the experiment with SW480 colon cancer cells, 9%.
Regarding `CN1CCN(c2cncc3[nH]c(-c4n[nH]c5ccc(-c6cncc(NC(=O)C7CCCC7)c6)nc45)nc23)CC1` [Compound 246, N-(5-(3-(7-(4-Methylpiperazin-1-yl)-3H-imidazo[4,5-c]pyridin-2-yl)-1H-pyrazolo[4,3-b]pyridin-5-yl)pyridin-3-yl)cyclopentanecarboxamide], the EC50 (in the experiment with IL-6 in THP-1 cells; in experiment [1]; in the experiment with SW480 colon cancer cells) was over 10 µM throughout. The inhibition at 10 µM is 0% in the experiment on IL-6 in THP-1 cells, 3.9% in experiment [1] and 1% in the experiment on SW480 colon cancer cells.
On to `Fc1cccc(-c2cncc3[nH]c(-c4n[nH]c5ccc(C6=CCNCC6)nc45)nc23)c1` [Compound 478, 3-(7-(3-Fluorophenyl)-3H-imidazo[4,5-c]pyridin-2-yl)-5-(1,2,3,6-tetrahydropyridin-4-yl)-1H-pyrazolo[4,3-b]pyridine], for which the EC50 (in the experiment on IL-6 in THP-1 cells; in experiment [1]; with SW480 colon cancer cells) was over 10 µM throughout. The inhibition at 10 µM in the experiment with IL-6 in THP-1 cells came out at 18.6%; in experiment [1] it was 11%; in the experiment on SW480 colon cancer cells, 0%.
For the compound `COc1cccc(-c2cncc3[nH]c(-c4n[nH]c5ccc(-c6cccnc6)nc45)nc23)c1` [Compound 949, 3-(7-(3-Methoxylphenyl)-3H-imidazo[4,5-c]pyridin-2-yl)-5-(pyridin-3-yl)-1H-pyrazolo[4,3-b]pyridine], the EC50 is 0.682 µM with IL-6 in THP-1 cells, over 10 µM in experiment [1] and over 10 µM in the experiment with SW480 colon cancer cells. For the same compound, the inhibition at 10 µM in experiment [1] came out at 18.2%; with SW480 colon cancer cells it was 6.9%.
Turning to `COc1cccc(-c2cncc3[nH]c(-c4n[nH]c5ccc(-c6cncc(NC(=O)C7CCCCC7)c6)nc45)nc23)c1` [Compound 967, N-(5-(3-(7-(3-Methoxylphenyl)-3H-imidazo[4,5-c]pyridin-2-yl)-1H-pyrazolo[4,3-b]pyridin-5-yl)pyridin-3-yl)cyclohexanecarboxamide], the EC50 (in the experiment with IL-6 in THP-1 cells; in experiment [1]; in the experiment with SW480 colon cancer cells) was over 10 µM throughout. The inhibition at 10 µM in the experiment with IL-6 in THP-1 cells amounted to 33.9%; in experiment [1], 0%; in the experiment on SW480 colon cancer cells, 10.8%.
Regarding `COc1cccc(-c2cncc3[nH]c(-c4n[nH]c5ccc(-c6cncc(NC(=O)Cc7ccccc7)c6)nc45)nc23)c1` [Compound 955, N-(5-(3-(7-(3-methoxylphenyl)-3H-imidazo[4,5-c]pyridin-2-yl)-1H-pyrazolo[4,3-b]pyridin-5-yl)pyridin-3-yl)-2-phenylacetamide], the EC50 (in the experiment with IL-6 in THP-1 cells; in experiment [1]; with SW480 colon cancer cells) was over 10 µM each time. In addition, the inhibition at 10 µM in the experiment with IL-6 in THP-1 cells stood at 27.5%; in experiment [1] it was 21.5%; in the experiment with SW480 colon cancer cells, 2.7%.
As to `Cc1ccc(-c2cncc3[nH]c(-c4n[nH]c5ccc(-c6cncc(NC(=O)C(C)C)c6)nc45)nc23)s1` [Compound 373, N-(5-(3-(7-(5-Methylthiophen-2-yl)-3H-imidazo[4,5-c]pyridin-2-yl)-1H-pyrazolo[4,3-b]pyridin-5-yl)pyridin-3-yl)isobutyramide], the EC50 (in the experiment with IL-6 in THP-1 cells; in experiment [1]; with SW480 colon cancer cells) was over 10 µM throughout. The inhibition at 10 µM in the experiment on IL-6 in THP-1 cells was 41.3%; in experiment [1], 16.1%; in the experiment on SW480 colon cancer cells it was 2.6%.
